Source: US20210038607A1, “OXADIAZOLYLTHIOPHENE DERIVATIVES USEFUL AS HISTONE DEACETYLASE INHIBITORS” (Karus Therapeutics Limited, priority 2018, published 2021)

Legend:
[1] = biological target: T1, Human HDAC11 (Homo sapiens, UniProt Q96DB2); experiment: HDAC11 biochemical assay, class IIa-specific substrate; settings: read-out: HDAC Isoform IC50 (nM) 11
T1 construct: Human HDAC11 (full length); His (N); host or cells: baculovirus expression system
T1 sequence (Q96DB2 1-347): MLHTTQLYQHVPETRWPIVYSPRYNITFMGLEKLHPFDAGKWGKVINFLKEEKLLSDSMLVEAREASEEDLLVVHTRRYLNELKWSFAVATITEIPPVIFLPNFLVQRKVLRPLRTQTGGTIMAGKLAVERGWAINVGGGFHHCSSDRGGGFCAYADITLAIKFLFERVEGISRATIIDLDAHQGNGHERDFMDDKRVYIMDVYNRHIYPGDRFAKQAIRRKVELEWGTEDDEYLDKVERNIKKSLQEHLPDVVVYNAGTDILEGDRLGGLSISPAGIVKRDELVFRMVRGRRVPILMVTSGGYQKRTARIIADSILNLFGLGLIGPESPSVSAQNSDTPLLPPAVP
Experimental: (§1) Activity against all zinc-dependent HDACs 1 to 11 was assessed by using an acetylated AMC-labeled peptide substrate. The substrate RHKK(Ac)AMC was used for HDAC1, HDAC2, HDAC3, HDAC6 and HDAC10; the substrate used for HDAC8 was RHK(Ac)K(Ac)AMC. Activity against the class IIa HDACs (HDAC4, 5, 7, 9) and HDAC11 was determined using a class IIa-specific substrate, BOC-Lys(trifluoroacetyl)-AMC (“Trifluoroacetyl Lysine”; see Lahm et al, 2007, PNAS, 104, 17335-17340). All assays were based on the AMC-labeled substrate and developer combination.
(§2) The protocol involved a two-step reaction: first, the substrate with the acetylated lysine side chain is incubated with a sample containing HDAC activity, to produce the deacetylated products, which are then digested in the second step by the addition of developer to produce the fluorescent signal proportional to the amount of deacetylated substrates.
Human HDAC11 (full length) (GenBank Accession No. NM_024827) with N-terminal His tag, MW=42.9 kDa, expressed in baculovirus expression system.
(§3) Assay Buffer: 50 mM Tris-HCl, pH8.0, 137 mM NaCl, 2.7 mM KCl, 1 mM MgC2. Before use, 1 mg/mL BSA and DMSO are added.
HDAC11: 5 ng/ul HDAC11 and 50 μMHDAC substrate are in the reaction buffer with 1% DMSO final. Incubate for 30 minutes at 30° C.
(§4) Stage 1: Deacetylation of substrate by incubation of HDAC enzymes with compounds
(§5) Stage 2: Development by addition of Developer to digest the deacetylated substrate, and generate the fluorescent colour; Detection: 360/460 Ex/Em

[2] = biological target: T2, Complex of human HDAC3 and human NCOR2 (Homo sapiens, UniProt O15379); experiment: HDAC3 biochemical assay, AMC-labeled peptide substrate; settings: read-out: HDAC Isoform IC50 (nM) 3
T2 construct: full length with C-terminal His tag, MW=49.7 kDa; His (C); host or cells: baculovirus expression system (co-expressed)
T2 sequence (O15379 whole entry, canonical isoform): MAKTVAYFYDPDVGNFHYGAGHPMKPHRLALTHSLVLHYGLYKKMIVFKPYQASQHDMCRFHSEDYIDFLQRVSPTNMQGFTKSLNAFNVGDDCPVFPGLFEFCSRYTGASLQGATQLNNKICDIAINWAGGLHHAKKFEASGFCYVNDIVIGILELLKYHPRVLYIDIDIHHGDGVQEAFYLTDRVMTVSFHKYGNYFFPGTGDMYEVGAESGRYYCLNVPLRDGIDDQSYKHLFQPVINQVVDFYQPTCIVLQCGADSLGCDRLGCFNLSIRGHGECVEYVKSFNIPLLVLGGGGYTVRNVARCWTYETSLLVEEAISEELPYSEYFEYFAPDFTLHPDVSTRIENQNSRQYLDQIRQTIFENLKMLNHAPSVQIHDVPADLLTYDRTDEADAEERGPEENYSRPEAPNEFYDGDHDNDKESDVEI
T2 sequence (Q9Y618 395-489 partner limits assumed): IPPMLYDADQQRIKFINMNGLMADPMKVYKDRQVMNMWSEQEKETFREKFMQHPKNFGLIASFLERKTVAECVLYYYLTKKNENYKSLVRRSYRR
Experimental: as §1, §2
Complex of human HDAC3 (GenBank Accession No. NM_003883), full length with C-terminal His tag, MW=49.7 kDa, and human NCOR2 (amino acid 395-489) (GenBank Accession No. NM_006312), N-terminal GST tag, MW=37.6 kDa, co-expressed in baculovirus expression system.
as §3
HDAC3: 0.1 ng/ul HDAC3 and 50 μM HDAC substrate are in the reaction buffer with 1% DMSO final. Incubate for 1 hour at 30° C.
as §4, §5

[3] = biological target: T3, Recombinant human HDAC6 (Homo sapiens, UniProt Q9UBN7); experiment: HDAC6 biochemical assay, AMC-labeled peptide substrate; settings: HDAC6; read-out: HDAC Isoform IC50 (nM) 6
T3 construct: full length, MW=159 kDa; GST (N); host or cells: Sf9 insect cells (baculovirus)
T3 sequence (Q9UBN7 1-1215): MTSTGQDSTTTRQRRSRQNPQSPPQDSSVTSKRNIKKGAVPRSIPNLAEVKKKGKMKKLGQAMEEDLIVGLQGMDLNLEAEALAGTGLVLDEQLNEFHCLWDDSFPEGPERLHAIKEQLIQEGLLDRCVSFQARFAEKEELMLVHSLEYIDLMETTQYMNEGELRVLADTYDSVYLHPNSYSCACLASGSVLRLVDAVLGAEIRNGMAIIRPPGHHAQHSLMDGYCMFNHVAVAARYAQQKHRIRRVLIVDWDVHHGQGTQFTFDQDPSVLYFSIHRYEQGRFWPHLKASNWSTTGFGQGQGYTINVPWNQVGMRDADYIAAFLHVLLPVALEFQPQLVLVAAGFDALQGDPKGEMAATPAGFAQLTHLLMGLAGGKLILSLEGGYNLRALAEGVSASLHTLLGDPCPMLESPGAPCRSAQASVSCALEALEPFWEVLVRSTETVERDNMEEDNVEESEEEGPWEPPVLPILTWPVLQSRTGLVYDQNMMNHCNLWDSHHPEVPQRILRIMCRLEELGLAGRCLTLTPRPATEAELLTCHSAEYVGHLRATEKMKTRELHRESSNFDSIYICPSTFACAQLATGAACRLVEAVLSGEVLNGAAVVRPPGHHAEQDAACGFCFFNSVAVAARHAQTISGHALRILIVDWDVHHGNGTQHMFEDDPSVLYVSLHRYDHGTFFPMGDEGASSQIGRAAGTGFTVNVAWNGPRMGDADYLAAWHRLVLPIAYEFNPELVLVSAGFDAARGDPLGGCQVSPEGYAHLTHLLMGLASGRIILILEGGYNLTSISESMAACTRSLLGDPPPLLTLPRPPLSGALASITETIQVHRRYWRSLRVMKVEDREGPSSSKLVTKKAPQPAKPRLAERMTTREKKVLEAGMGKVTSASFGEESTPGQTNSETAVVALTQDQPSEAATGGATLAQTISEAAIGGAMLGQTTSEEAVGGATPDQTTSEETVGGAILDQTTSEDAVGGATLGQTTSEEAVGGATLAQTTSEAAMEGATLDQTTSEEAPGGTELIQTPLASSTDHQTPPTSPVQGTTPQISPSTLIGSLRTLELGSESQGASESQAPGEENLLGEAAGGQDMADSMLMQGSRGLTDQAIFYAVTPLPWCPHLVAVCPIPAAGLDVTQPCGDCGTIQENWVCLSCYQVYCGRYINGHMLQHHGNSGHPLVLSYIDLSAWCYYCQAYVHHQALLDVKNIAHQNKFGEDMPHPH
Method in brief: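 Two-step fluorogenic read-out: enzyme deacetylates 50 μM RHKK(Ac)AMC for 1 h at 30° C in pH 8.0 Tris buffer with BSA and 1% DMSO, then developer cleavage gives signal at Ex 360/Em 460. Enzyme: 0.3 ng/ul recombinant full-length human HDAC6, GST-tagged, Sf9-expressed.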

Compound | IC50 [1] | IC50 [2] | IC50 [3]
O=C(c1cnnc(N(Cc2ccc(-c3noc(C(F)(F)F)n3)s2)c2cnccn2)c1)N1C2CCC1COC2 [Example GB, 5-{3-Oxa-8-azabicyclo[3.2.1]octane-8-carbonyl}-N-(pyrazin-2-yl)-N-({5-[5-(trifluoromethyl)-1,2,4-oxadiazol-3-yl]thiophen-2-yl}methyl)pyridazin-3-amine] | > 10000 nM | > 10000 nM | ≤ 500 nM
O=C(c1nccnc1N(Cc1ccc(-c2noc(C(F)(F)F)n2)s1)c1cnccn1)N1CCC1 [Example GP, 3-(Azetidine-1-carbonyl)-N-(pyrazin-2-yl)-N-({5-[5-(trifluoromethyl)-1,2,4-oxadiazol-3-yl]thiophen-2-yl}methyl)pyrazin-2-amine] | > 10000 nM | > 10000 nM | ≤ 1000 nM
Fc1ccnc(N(Cc2ccc(-c3noc(C(F)(F)F)n3)s2)c2cnccn2)c1 [Example AG, N-(4-Fluoropyridin-2-yl)-N-({5-[5-(trifluoromethyl)-1,2,4-oxadiazol-3-yl]thiophen-2-yl}methyl)pyrazin-2-amine] | > 10000 nM | > 10000 nM | ≤ 500 nM
FC(F)(F)c1nc(-c2ccc(CN(c3cnccn3)c3cc(CN4CCCC4)ccn3)s2)no1 [Example GG, N-{4-[(Pyrrolidin-1-yl)methyl]pyridin-2-yl}-N-({5-[5-(trifluoromethyl)-1,2,4-oxadiazol-3-yl]thiophen-2-yl}methyl)pyrazin-2-amine] | > 10000 nM | > 10000 nM | ≤ 1000 nM
CC1(c2cnnc(N(Cc3ccc(-c4noc(C(F)(F)F)n4)s3)c3cnccn3)c2)COC1 [Example GT, 5-(3-Methyloxetan-3-yl)-N-(pyrazin-2-yl)-N-({5-[5-(trifluoromethyl)-1,2,4-oxadiazol-3-yl]thiophen-2-yl}methyl)pyridazin-3-amine] | > 10000 nM | > 10000 nM | ≤ 500 nM
FC(F)(F)c1nc(-c2ccc(CN(c3cnccn3)c3ccc(CN4CCOCC4)nn3)s2)no1 [Example FN, 6-[(Morpholin-4-yl)methyl]-N-(pyrazin-2-yl)-N-({5-[5-(trifluoromethyl)-1,2,4-oxadiazol-3-yl]thiophen-2-yl}methyl)pyridazin-3-amine] | > 10000 nM | > 10000 nM | ≤ 500 nM
Cc1cncc(N(Cc2ccc(-c3noc(C(F)(F)F)n3)s2)c2cnccn2)n1 [Example BP, 6-Methyl-N-(pyrazin-2-yl)-N-({5-[5-(trifluoromethyl)-1,2,4-oxadiazol-3-yl]thiophen-2-yl}methyl)pyrazin-2-amine] | > 10000 nM | > 10000 nM | ≤ 500 nM
FC(F)(F)c1cnc(N(Cc2ccc(-c3noc(C(F)(F)F)n3)s2)c2cnccn2)cn1 [Example BK, N-(Pyrazin-2-yl)-5-(trifluoromethyl)-N-({5-[5-(trifluoromethyl)-1,2,4-oxadiazol-3-yl]thiophen-2-yl}methyl)pyrazin-2-amine] | > 10000 nM | > 10000 nM | ≤ 10000 nM
O=C(c1ccc(N(Cc2ccc(-c3noc(C(F)(F)F)n3)s2)c2cnccn2)nn1)N1CC[S+]([O-])CC1 [Example FD, 4-{6-[(Pyrazin-2-yl)({5-[5-(trifluoromethyl)-1,2,4-oxadiazol-3-yl]thiophen-2-yl}methyl)amino]pyridazine-3-carbonyl}-1lambda4-thiomorpholin-1-one] | > 10000 nM | ≤ 10000 nM | ≤ 500 nM

Next, values leading:

IC50 [1] | IC50 [2] | IC50 [3] | Compound
> 10000 nM | > 10000 nM | ≤ 1000 nM | FC(F)(F)c1nc(-c2ccc(CN(c3cnccn3)c3cc(CN4CCOCC4)ccn3)s2)no1 [Example GI, N-{4-[(Morpholin-4-yl)methyl]pyridin-2-yl}-N-({5-[5-(trifluoromethyl)-1,2,4-oxadiazol-3-yl]thiophen-2-yl}methyl)pyrazin-2-amine]
> 10000 nM | ≤ 10000 nM | ≤ 500 nM | O=C(c1cnnc(N(Cc2ccc(-c3noc(C(F)(F)F)n3)s2)c2cnccn2)c1)N1CC(C(F)F)C1 [Example GK, 5-[3-(Difluoromethyl)azetidine-1-carbonyl]-N-(pyrazin-2-yl)-N-({5-[5-(trifluoromethyl)-1,2,4-oxadiazol-3-yl]thiophen-2-yl}methyl)pyridazin-3-amine]
> 10000 nM | ≤ 10000 nM | ≤ 500 nM | O=C(c1cnnc(N(Cc2ccc(-c3noc(C(F)(F)F)n3)s2)c2cnccn2)c1)N1C[C@H]2C[C@@H]1CO2 [Example FW, 5-[(1R,4R)-2-Oxa-5-azabicyclo[2.2.1]heptane-5-carbonyl]-N-(pyrazin-2-yl)-N-({5-[5-(trifluoromethyl)-1,2,4-oxadiazol-3-yl]thiophen-2-yl}methyl)pyridazin-3-amine]
> 10000 nM | > 10000 nM | ≤ 500 nM | FC(F)(F)c1cnnc(N(Cc2ccc(-c3noc(C(F)(F)F)n3)s2)c2cnccn2)c1 [Example EF, N-(Pyrazin-2-yl)-5-(trifluoromethyl)-N-({5-[5-(trifluoromethyl)-1,2,4-oxadiazol-3-yl]thiophen-2-yl}methyl)pyridazin-3-amine]
> 10000 nM | ≤ 10000 nM | ≤ 500 nM | O=C(c1ccc(N(Cc2ccc(-c3noc(C(F)(F)F)n3)s2)c2cnccn2)nn1)N1CC(O)(C(F)(F)F)C1 [Example FK, 1-{6-[(Pyrazin-2-yl)({5-[5-(trifluoromethyl)-1,2,4-oxadiazol-3-yl]thiophen-2-yl}methyl)amino]pyridazine-3-carbonyl}-3-(trifluoromethyl)azetidin-3-ol]
